Experimental data reported in patent US20070059272A1 (priority 2005, published 2007).

What was measured:
[1] = test system: PA-I protein expression in PAO1; type: cell-based, Pseudomonas aeruginosa
lecA (PA-I) mRNA in PAO1 = test: Northern blot of PA-I (lecA) mRNA in PAO1; type: cell-based, Pseudomonas aeruginosa; details: for PA-I mRNA by Northern blot: PAO1, 200 ng/ml cytokine in cell culture media, 4 hours
[2] = test system: pyocyanin (PCN) production in P. aeruginosa PAO1; type: cell-based, Pseudomonas aeruginosa
[3] = test system: PCN production in PAO1 mutant strains; type: cell-based, Pseudomonas aeruginosa
P. aeruginosa = type: cell-based, Pseudomonas aeruginosa
[4] = test system: PA-I expression in P. aeruginosa; type: cell-based, Pseudomonas aeruginosa
[5] = test system: PA-I expression in Pseudomonas strain PA27853; test: Quantitative RT-PCR of PA-I mRNA in PA27853 exposed to morphine; type: cell-based, Pseudomonas aeruginosa
P. aeruginosa PA27853 = test: Mice with slow release morphine pellets drinking PA27853-spiked formula; type: in vivo; details: daily oral 1×10^8 cfu/ml PA27853
[6] = test system: membrane protein fractions of P. aeruginosa; test: Morphine binding to P. aeruginosa membrane protein fractions; design: species or system Pseudomonas aeruginosa
[7] = in vivo, iv; cited from earlier work
MDCK cells = type: cell-based
PA27853 = test: Biofilm formation assay, PA27853; type: cell-based, Pseudomonas aeruginosa
[8] = test system: PA-I promoter activity in reporter strain PA27853/PLL-EGFP
Caco-2 cells = test: TEER of Caco-2 monolayers inoculated with PA27853 with and without IFN-γ; type: cell-based, human
Procedure: (§1) In addition, strains were exposed to apical media from Caco-2 cells basolaterally exposed to single and combinations of the various epithelial-derived cytokines. […] Media from Caco-2 cells exposed to various combinations of these cytokines had no effect on PA-I expression. […] Using both ELISA, immunofluorescence microscopy, and flow cytometry, the binding characteristics of IFNγ were determined for both whole bacteria and membrane fractions of P. aeruginosa. […] These effects were also observed with strain PAO1. […] It has been difficult to immunoprecipitate a significant quantity of this protein from PA27853, but it has been determined that this protein can also be immunoprecipitated from E. coli (FIG. 12C). Next, IFN-γ binding specificity, to whole bacterial cells, was determined, using reiterative binding studies in the presence of various gram negatie bacterial strains, including P. aeruginosa. […] Finally, in order to determine if PA-I was functionally expressed in PA27853 in the presence IFN-γ, PA27853 was inoculated onto Caco-2 cell monolayers in the presence of IFN-γ and the effect on barrier dysregulating dynamics of PA27853 against this cell line were assessed to determine if IFN-γ shifted the dynamics. […]

[9] = test system: PA-I expression in P. aeruginosa; test: PA-I expression in P. aeruginosa exposed to media containing candidate host agents; type: cell-based, Pseudomonas aeruginosa; details: P. aeruginosa in media containing adenosine, TNFα, IL-2, IL-6, IL-8 or IFNγ
From the text: FIG. 10. Exposure of P. aeruginosa to IFNγ induces PA-I expression and the expression of rhlI. For controls (lane 1, 2) bacteria are suspended in media I (Tryptic soy broth) and media II (DMEM +10% FBS ). Lane 3, 4 are MRNA levels from bacteria exposed to IFNγ and TNFα in DMEM.
In addition, strains were exposed to apical media from Caco-2 cells basolaterally exposed to single and combinations of the various epithelial-derived cytokines. […] Media from Caco-2 cells exposed to various combinations of these cytokines had no effect on PA-I expression. […] Using both ELISA, immunofluorescence microscopy, and flow cytometry, the binding characteristics of IFNγ were determined for both whole bacteria and membrane fractions of P. aeruginosa. […] These effects were also observed with strain PAO1. […] It has been difficult to immunoprecipitate a significant quantity of this protein from PA27853, but it has been determined that this protein can also be immunoprecipitated from E. coli (FIG. 12C). Next, IFN-γ binding specificity, to whole bacterial cells, was determined, using reiterative binding studies in the presence of various gram negatie bacterial strains, including P. aeruginosa. […]

[10] = test system: rhlI transcription in PAO1; test: Northern blot of rhlI gene expression in PAO1; type: cell-based, Pseudomonas aeruginosa
C4-HSL synthesis in PAO1 = test: C4-HSL in PAO1 supernatant by luminescence reporter strain pSB536; type: cell-based, Pseudomonas aeruginosa; details: PAO1, 100 ng/ml IFN-γ, bacterial supernatants
[11] = test system: whole cells of P. aeruginosa (strain PAO1); test: IFN-γ binding to whole cells of P. aeruginosa PAO1 (ELISA, immunofluorescence); design: species or system Pseudomonas aeruginosa
Procedure: IFN-γ direct binding to a protein on the surface of P. aeruginosa, in the course of virulence activation, was also investigated. ELISA binding assays were performed by first coating microtiter plates with P. aeruginosa (strain PAO1), then adding recombinant human IFN-γ (rH IFN-γ), followed by biotin-labeled anti-IFN-γ antibody. IFN-γ avidly bound to whole fixed cells of P. aeruginosa in a dose-dependent manner (FIG. 25A). The ELISA data were confirmed by the results of immunofluorescent imaging of bacterial cells exposed to IFN-γ followed by biotin-labeled anti-IFN-γ antibody and Alexa 594-labeled streptavidin. The vast majority of bacterial cells (73%±3.2% vs. 8.5%±2.5%) bound IFN-γ (FIG. 25B, FIG. 27). The binding capacity of the IFN-γ to the P. aeruginosa was affected by bacterial growth phase (FIG. 28A). In order to localize the binding site of IFN-γ to P. aeruginosa (PAO1), equal protein concentrations of membrane and cytosol fractions of P. aeruginosa were prepared and coated onto ELISA microtiter plates. […] To determine if the observed membrane binding by IFN-γ was protein dependent, membrane fractions were treated with proteinase K for 3 hours and IFN-γ binding assessed.

[12] = test system: whole bacterial cells of PA27853; test: IFN-γ binding to whole bacterial cells of PA27853; design: species or system Pseudomonas aeruginosa
Procedure: as §1

[13] = test system: membrane fractions of P. aeruginosa (PAO1); test: ELISA binding to membrane fractions and solubilized membrane proteins of P. aeruginosa PAO1; design: species or system Pseudomonas aeruginosa
OprF = target: T1, OprF (Pseudomonas aeruginosa, UniProt P13794); test: ELISA binding of IFN-γ to purified OprF; details: dose-dependent
T1 sequence (P13794 25-350): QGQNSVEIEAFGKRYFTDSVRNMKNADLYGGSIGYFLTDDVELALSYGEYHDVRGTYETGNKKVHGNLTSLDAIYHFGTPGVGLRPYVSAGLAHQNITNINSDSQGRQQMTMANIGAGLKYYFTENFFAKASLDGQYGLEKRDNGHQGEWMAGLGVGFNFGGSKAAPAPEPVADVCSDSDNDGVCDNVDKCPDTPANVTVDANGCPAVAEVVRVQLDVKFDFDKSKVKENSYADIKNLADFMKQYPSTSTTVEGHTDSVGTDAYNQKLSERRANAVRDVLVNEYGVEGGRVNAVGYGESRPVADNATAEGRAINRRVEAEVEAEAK

[14] = test system: PA-I protein expression in P. aeruginosa mutant strains; test: PA-I expression in PAO1 mutant strains exposed to IFN-γ; type: cell-based, Pseudomonas aeruginosa

In the case of `CCCC(=O)N[C@H]1CCOC1=O` [C4-HSL, C4-homoserine lactone], the PA-I protein expression [1] is reported as “responds to varying doses”, the “PA-I mRNA by Northern blot” value (lecA (PA-I) mRNA in PAO1) is reported as “Induction of PA-I mRNA was observed” and the “onset of PCN production versus cell density” value [2] is reported as “shift in the production of PCN at lower cell densities”. For the same compound, the “PCN production in rhlR mutant strain” value [3] was “did not restore PCN production”, the “PCN production in seven additional mvfR mutants” value [3] was “none of these mutants produced PCN” and the “PCN production in ΔGacA and ΔMvfR” value [3] was “unable to restore PCN production”. The “PCN production in ΔGacA/gacA” value [3] was “decreased, albeit minimally”, the “PCN production in ΔMvfR/mvfR” value [3] was “further increased” and the “PCN response of MvfR truncation mutant 121-332” value [3] was “did not respond”. The “PCN response of MvfR truncation mutants 1-292, 1-291 and 1-283” value [3] was “did not respond”, the “PCN response of MvfR truncation mutants 1-299 and 1-293” value [3] was “enhanced PCN production” and the “dynamics of PCN production in ΔGacA/gacA” value [3] was “no effect on the dynamics of PCN production”. For the same compound, the “dynamics of PCN production in ΔMvfR/mvfR” value [3] was “shift in PCN production at lower cell densities”, the “bacterial growth in TSB media” value (P. aeruginosa) was “Neither compound had an effect” and the “PA-I expression, in vitro studies” value [4] was “induced PA-I expression”.

With `CN1CC[C@]23c4c5ccc(O)c4O[C@H]2[C@@H](O)C=C[C@H]3[C@H]1C5` [morphine] the PA-I expression ([5]; PA27853, physiologic concentrations of morphine (13 μM)) was “four-fold increase”, the “increase in PA-I mRNA” value ([5]; PA27853 exposed to morphine (13 μM), quantitative RT-PCR) was 4 fold and the “mice that developed severe sepsis” value (P. aeruginosa PA27853) was 4/4. The mortality (P. aeruginosa PA27853) was “significant mortality”, the “response to express PA-I” value [4] was “robust response” and the “binding to membrane protein fractions” value [6] was “binds to membrane protein fractions”. The “concentration at tissue sites such as the intestinal mucosa” value [7] was no more than 100 µM.

For `C=CCN1C[C@H](C)N([C@H](c2ccc(C(=O)N(CC)CC)cc2)c2cccc(O)c2)C[C@H]1C` [BW373U86], the “TEER of MDCK cells following apical exposure to PA27853 plus opioid” value (MDCK cells) was “more profound decrease in the TEER”, the biofilm production (PA27853) was “especially increased” and the PA-I protein [1] was “same degree as C4-HSL”. For the same compound, the “response to express PA-I” value [4] was “robust response” and the “PA-I expression as judged by fluorescence of the GFP reporter strain” value [8] was “greatest effect on PA-I expression”.

With “IFN-γ: human recombinant Interferon gamma” the “barrier dysregulating effect of PA27853 (TEER)” value (Caco-2 cells; Caco-2, five hours of incubation) was “enhanced the barrier dysregulating effect”, the “TEER, IFN-γ alone” value (Caco-2 cells; Caco-2, no bacteria) was “Neither media nor IFN-γ alone altered TEER” and the “IFN-γ concentration with the greatest increase in PA-I protein expression” value [1] was 100 ng/mL. The PA-I protein [1] was “increased”, the “PA-I mRNA by Northern blot” value (lecA (PA-I) mRNA in PAO1) was “Induction of PA-I mRNA was observed” and the “PA-I mRNA” value (lecA (PA-I) mRNA in PAO1; early stationary phase of growth) was “increased”. The “PA-I expression, candidate agents alone” value [9] was “induced a direct effect on PA-I expression”, the rhlI transcription [10] was “induced” and the C4-HSL synthesis (C4-HSL synthesis in PAO1) was “increased”. For the same compound, the pyocyanin production [2] was “increased pyocyanin production”, the “PCN production induced by IFN-γ in rhlI and rhlR mutant strains” value [3] was “abolished” and the “binding to whole fixed cells by ELISA” value ([11]; PAO1, recombinant human IFN-γ) was “avidly bound”. For the same compound, the “bacterial cells that bound IFN-γ” value ([11]; immunofluorescent imaging, versus 8.5%±2.5% control) was 73%±3.2%, the “binding to whole bacterial cells” value [12] was “high binding affinity” and the “binding to membrane versus cytosol fractions” value ([13]; equal protein concentrations, ELISA) was “preferentially bound to membrane fractions”. The “binding to membranes after proteinase K” value ([13]; proteinase K for 3 hours) was “decreased”, the “binding to solubilized membrane proteins of OprF knockout strains” value ([13]; versus wild-type PAO1, ELISA) was “reduced binding” and the “binding to purified OprF” value (OprF) was “directly binds”. For the same compound, the “PA-I expression, in vitro studies” value [4] was “induced PA-I expression”, the “response to express PA-I” value [4] was “robust response” and the “PA-I expression induced by IFN-γ in rhlI and rhlR mutant strains” value [14] was “abolished”. For the same compound, the “PA-I protein expression in OprF mutant strains” value ([14]; 100 ng/ml of IFN-γ) was “failed to increase the expression of the PA-I protein”, the “PA-I protein expression in strain 31899 reconstituted with OprF” value ([14]; plasmid pUCP24/OprF) was “recovery of their responsiveness” and the “PA-I expression in reporter strain exposed to cytokines” value [8] was “significant increase in PA-I expression”.
